Data reported in US20100222269A1, “IMPROVED DERIVATIVES OF AMYLIN” (priority 2007, published 2010).
Read-outs that look alike come from different tables or passages of the source. Starred links: 1 amine or outer side, 2 acyl side, 3 side chain; linkers in the order of their positions; H or OH if unused. Positions of bridges follow the written chain, without caps; N, C: chain ends. Residues, ends and D or L forms follow the SMILES beside them. *: point of attachment. X1 = O=C(CCCCCCCCCCCCCCCc1nnn[nH]1)NS(=O)(=O)CCCC(=O)*; C20 diacid = O=C(O)CCCCCCCCCCCCCCCCCCC(=O)*; γGlu = O=C(O)[C@H](CCC(=O)[*:2])N[*:1]

Molecular target: T1, Amylin 3(a) receptor (human calcitonin receptor (CTa) with RAMP-3) (Homo sapiens, UniProt O60896+P30988)
T1 construct: expressed in transfected cells; host or cells: BHK570 (baby hamster kidney) cells, stably transfected, with CRE-luciferase reporter
T1 sequence (O60896 24-148): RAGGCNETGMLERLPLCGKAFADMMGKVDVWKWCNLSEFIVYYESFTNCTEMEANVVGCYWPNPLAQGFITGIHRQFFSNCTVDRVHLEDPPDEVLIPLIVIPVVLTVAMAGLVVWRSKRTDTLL
T1 sequence (P30988 25-474): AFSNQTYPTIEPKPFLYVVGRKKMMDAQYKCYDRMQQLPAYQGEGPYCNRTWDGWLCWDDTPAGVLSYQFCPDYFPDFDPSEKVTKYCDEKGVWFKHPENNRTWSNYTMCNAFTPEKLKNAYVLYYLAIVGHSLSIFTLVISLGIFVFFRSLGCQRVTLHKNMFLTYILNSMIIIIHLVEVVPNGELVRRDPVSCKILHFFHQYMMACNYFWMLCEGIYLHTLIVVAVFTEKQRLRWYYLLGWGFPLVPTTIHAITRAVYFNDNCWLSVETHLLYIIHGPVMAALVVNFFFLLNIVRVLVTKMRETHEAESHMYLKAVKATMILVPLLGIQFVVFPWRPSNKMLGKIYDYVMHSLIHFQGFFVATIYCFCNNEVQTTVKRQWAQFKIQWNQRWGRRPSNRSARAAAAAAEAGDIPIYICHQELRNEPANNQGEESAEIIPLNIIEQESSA
Assay: Amylin luciferase assay (CRE-luciferase reporter in BHK Amylin 3(a)//CRE-luc cells)
Format: cell-based
How it was run: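 BHK570 cells stably expressing human calcitonin receptor (CTa), RAMP-3 and a CRE-luciferase reporter, about 20.000 cells/well, were exposed to standard or sample for 4 h at 37° C in phenol-red-free DMEM with 10% FBS and 10 mM Hepes pH 7,4. Luminescence was read after 30 min with LucLite at room temperature.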

[1] = BHK570 cells with human calcitonin receptor (CTa), RAMP-3 and CRE-luciferase reporter, 4 hours incubation, read-out: Potency luciferase assay

EC50 [1] [nM] | Structure (SMILES) | EC50 [nM]
0.09 | CC[C@H](C)[C@H](NC(=O)[C@@H]1CCCN1C(=O)CNC(=O)[C@H](Cc1ccccc1)NC(=O)[C@H](CC(N)=O)NC(=O)[C@H](CC(N)=O)NC(=O)[C@H](CO)NC(=O)[C@H](CO)NC(=O)[C@H](Cc1c[nH]cn1)NC(=O)[C@@H](NC(=O)[C@H](CC(C)C)NC(=O)[C@H](Cc1ccccc1)NC(=O)[C@H](CC(N)=O)NC(=O)[C@H](C)NC(=O)[C@H](CC(C)C)NC(=O)[C@H](CCCNC(=N)N)NC(=O)[C@H](CCC(N)=O)NC(=O)[C@@H](NC(=O)[C@H](C)NC(=O)[C@@H]1CSSC[C@H](NC(=O)[C@H](CCC(=O)O)NC(=O)[C@H](CCCNC(=N)N)NC(=O)[C@H](CCC(=O)O)NC(=O)[C@H](CCC(=O)O)NC(=O)CCCS(=O)(=O)NC(=O)CCCCCCCCCCCCCCCc2nnn[nH]2)C(=O)N[C@@H](CC(N)=O)C(=O)N[C@@H]([C@@H](C)O)C(=O)N[C@@H](C)C(=O)N[C@@H]([C@@H](C)O)C(=O)N1)[C@@H](C)O)C(C)C)C(=O)N[C@@H](CC(C)C)C(=O)N1CCC[C@H]1C(=O)N1CCC[C@H]1C(=O)N[C@H](C(=O)N[C@@H](CC(N)=O)C(=O)N[C@H](C(=O)NCC(=O)N[C@@H](CO)C(=O)N[C@@H](CC(N)=O)C(=O)N[C@H](C(=O)N[C@@H](Cc1ccc(O)cc1)C(N)=O)[C@@H](C)O)C(C)C)[C@@H](C)O [Example 31, N-alpha-[4-(16-1H-tetrazol-5-yl-hexadecanoylsulfamoyl)-butyryl]-Glu-Glu-Arg-[Glu1]pramlintide (1-37)] (X1-EERECNTATCATQRLANFLVHSSNNFGPILPPTNVGSNTY-NH2; disulfide 5-10) | –
– | CC(C)C[C@H](NC(=O)[C@H](CC(N)=O)NC(=O)[C@H](CCC(N)=O)NC(=O)[C@H](CO)NC(=O)[C@H](CO)NC(=O)[C@H](CCCNC(=N)N)NC(=O)[C@@H](NC(=O)[C@H](CC(C)C)NC(=O)[C@H](Cc1ccccc1)NC(=O)[C@H](CC(N)=O)NC(=O)[C@H](C)NC(=O)[C@H](CC(C)C)NC(=O)[C@H](CCCNC(=N)N)NC(=O)[C@H](CCC(N)=O)NC(=O)[C@@H](NC(=O)[C@H](C)NC(=O)[C@@H]1CSSC[C@H](NC(=O)[C@H](CCC(=O)O)NC(=O)[C@H](CCCNC(=N)N)NC(=O)[C@H](CCC(=O)O)NC(=O)[C@H](CCC(=O)O)NC(=O)CCCCCCCCCCCCCCCCCCC(=O)O)C(=O)N[C@@H](CCC(N)=O)C(=O)N[C@@H]([C@@H](C)O)C(=O)N[C@@H](C)C(=O)N[C@@H]([C@@H](C)O)C(=O)N1)[C@@H](C)O)C(C)C)C(=O)NCC(=O)N1CCC[C@H]1C(=O)N[C@H](C(=O)N[C@@H](CC(C)C)C(=O)N1CCC[C@H]1C(=O)N1CCC[C@H]1C(=O)N[C@H](C(=O)N[C@@H](CC(N)=O)C(=O)N[C@H](C(=O)NCC(=O)N[C@@H](CO)C(=O)N[C@@H](CC(N)=O)C(=O)N[C@H](C(=O)N[C@@H](Cc1ccc(O)cc1)C(N)=O)[C@@H](C)O)C(C)C)[C@@H](C)O)C(C)C [Example 35, N-alpha-(19-carboxynonadecanoyl)-Glu-Glu-Arg-[Glu1,Gln3,Arg18,Gln21,Leu23,Val26]-pramlintide (1-37)] ({C20 diacid}-EERECQTATCATQRLANFLVRSSQNLGPVLPPTNVGSNTY-NH2; disulfide 5-10; C-terminus assumed) | 0.09
2 | CC(C)C[C@H](NC(=O)[C@H](CC(N)=O)NC(=O)[C@H](CCC(N)=O)NC(=O)[C@H](CO)NC(=O)[C@H](CO)NC(=O)[C@H](CCCNC(=N)N)NC(=O)[C@@H](NC(=O)[C@H](CC(C)C)NC(=O)[C@H](Cc1ccccc1)NC(=O)[C@H](CC(N)=O)NC(=O)[C@H](C)NC(=O)[C@H](CC(C)C)NC(=O)[C@H](CCCNC(=N)N)NC(=O)[C@H](CCC(N)=O)NC(=O)[C@@H](NC(=O)[C@H](C)NC(=O)[C@@H]1CSSC[C@H](NC(=O)[C@H](CCC(=O)O)NC(=O)[C@H](CCC(=O)O)NC(=O)[C@H](CCC(=O)O)NC(=O)[C@H](CCC(=O)O)NC(=O)CCCCCCCCCCCCCCCCCCC(=O)O)C(=O)N[C@@H](CCC(N)=O)C(=O)N[C@@H]([C@@H](C)O)C(=O)N[C@@H](C)C(=O)N[C@@H]([C@@H](C)O)C(=O)N1)[C@@H](C)O)C(C)C)C(=O)NCC(=O)N1CCC[C@H]1C(=O)N[C@H](C(=O)N[C@@H](CC(C)C)C(=O)N1CCC[C@H]1C(=O)N1CCC[C@H]1C(=O)N[C@H](C(=O)N[C@@H](CC(N)=O)C(=O)N[C@H](C(=O)NCC(=O)N[C@@H](CO)C(=O)N[C@@H](CC(N)=O)C(=O)N[C@H](C(=O)N[C@@H](Cc1ccc(O)cc1)C(N)=O)[C@@H](C)O)C(C)C)[C@@H](C)O)C(C)C [Example 37, N-alpha-(19-carboxynonadecanoyl)-Glu-Glu-Glu-[Glu1,Gln3,Arg18,Gln21,Leu23,Val26]-pramlintide (1-37)] ({C20 diacid}-EEEECQTATCATQRLANFLVRSSQNLGPVLPPTNVGSNTY-NH2; disulfide 5-10) | –
0.3 | CC[C@H](C)[C@H](NC(=O)[C@@H]1CCCN1C(=O)CNC(=O)[C@H](Cc1ccccc1)NC(=O)[C@H](CC(N)=O)NC(=O)[C@H](CC(N)=O)NC(=O)[C@H](CO)NC(=O)[C@H](CO)NC(=O)[C@H](Cc1c[nH]cn1)NC(=O)[C@@H](NC(=O)[C@H](CC(C)C)NC(=O)[C@H](Cc1ccccc1)NC(=O)[C@H](CC(N)=O)NC(=O)[C@H](C)NC(=O)[C@H](CC(C)C)NC(=O)[C@H](CCCNC(=N)N)NC(=O)[C@H](CCC(N)=O)NC(=O)[C@@H](NC(=O)[C@H](C)NC(=O)[C@@H]1CSSC[C@H](NC(=O)[C@H](CCC(=O)O)NC(=O)[C@H](CCCNC(=N)N)NC(=O)[C@H](CCC(=O)O)NC(=O)[C@H](CCC(=O)O)NC(=O)CC[C@H](NC(=O)CCCCCCCCCCCCCCCCCCC(=O)O)C(=O)O)C(=O)N[C@@H](CC(N)=O)C(=O)N[C@@H]([C@@H](C)O)C(=O)N[C@@H](C)C(=O)N[C@@H]([C@@H](C)O)C(=O)N1)[C@@H](C)O)C(C)C)C(=O)N[C@@H](CC(C)C)C(=O)N1CCC[C@H]1C(=O)N1CCC[C@H]1C(=O)N[C@H](C(=O)N[C@@H](CC(N)=O)C(=O)N[C@H](C(=O)NCC(=O)N[C@@H](CO)C(=O)N[C@@H](CC(N)=O)C(=O)N[C@H](C(=O)N[C@@H](Cc1ccc(O)cc1)C(N)=O)[C@@H](C)O)C(C)C)[C@@H](C)O [Example 38, N-alpha-[(S)-4-carboxy-4-(19-carboxynonadecanoylamino)butyryl]-Glu-Glu-Arg-[Glu1]-pramlintide (1-37)] ({C20 diacid-γGlu}-EERECNTATCATQRLANFLVHSSNNFGPILPPTNVGSNTY-NH2; disulfide 5-10; C-terminus assumed) | –
